# Laboratory results taken from patent publication US6338963B1, “Use of carbon monoxide dependent guanylyl cyclase modifiers to stimulate neuritogenesis” (NeoTherapeutics, Inc., priority 1994, dated 2002).
# Marks after values point to notes of the source that are not given here.
# Key:
# [1] = system: mice; assay: Motor coordination, accelerating Roto-Rod treadmill; assay type: in vivo; conditions: AIT dose 0.005 mg/kg
# Method: Motor coordination was measured using an accelerating Roto-Rod treadmill for mice (Ugo Basile Co.). At various times after treatment with saline or drug, mice were placed on the Roto-Rod, which accelerates to maximum speed over a 5 minute period. The time in seconds at which the subject falls off was recorded in Table B directly below. Each animal was tested 3 times and the mean time was recorded.
# [2] = system: Swiss Webster mice; assay: Win-shift test, Swiss Webster mice with age-induced memory deficits; assay type: in vivo; conditions: AIT-082 30 mg/kg
# Method: Twelve-month old male Swiss Webster mice were screened for performance in the win-shift foraging test. Subjects were tested at various time delays, beginning at 10 seconds and increasing the inter-trial time interval to 30, 60, 90 and 120 seconds.
# Subjects with severe impairment could not remember the correct response at 10 seconds while subjects with mild deficit could remember the correct response with a 30 second inter-trial interval but not at 60 seconds. Subjects with a moderate deficit could remember the correct response with a 10 second inter-trial interval but not […] at 30 seconds. Thus, the win-shift model can detect age-induced impairments in working memory. As will be appreciated by those skilled in the art, this observation is important since it provides the ability to use age-matched subjects with varying degrees of impairment for evaluation of potential therapeutic agents.
# Following the establishment of a baseline, six subjects in each of the three groups were treated with AIT-82 (30 mg/kg, one hour before testing) or physostigmine (0.125 mg/kg, 30 minutes before testing) using the win-shift foraging test. The results are presented in Table L directly below and graphically represented in FIG. 9.
# [3] = system: C57BL/6 mice; assay: Win-shift test, C57BL/6 mice with age-induced memory deficits; assay type: in vivo; conditions: for subjects performing significantly above chance/total number of subjects: AIT-082 30 mg/kg
# Method: Twelve-month old male C57BL/6 mice were screened for performance in the win-shift foraging test. Subjects were tested at various inter-trial time intervals. Subjects who could not perform to criteria (>60% correct) at 10 seconds delay were classified as having a severe deficit. Subjects who performed to criteria at 10 seconds but not at 30 seconds were classified as having a moderate degree of deficit and subjects who performed to criteria at 30 seconds but not at 60 seconds were classified as having mild deficit. As in Example 21, subjects in each group were treated with either AIT-082 or PHY to determine the extent to which the working memory trace was prolonged. The results are presented in Table M directly below and graphically represented in FIG. 10.
# [4] = system: bFGF; assay: Summary of effects on growth factor mRNA and protein (Table R): bFGF; parameters: key: ± = mRNA; + = protein; nt = not tested
# From the text: (§1) The constellation of effects of AIT-082 on production of mRNA encoding growth factors and on production of growth factor proteins is shown in Table R. The results summarized in […] show both transcriptional and translational effects on growth factors that are in the categories of neurotrophins, pleiotrophins, members of the S100 family of EF hand calcium binding proteins, and members of the TGFβ superfamily. As indicated, effects have been shown at both the mRNA (transcriptional) and protein (translational) levels.
# [5] = system: TGFβ1; assay: Summary of effects on growth factor mRNA and protein (Table R): TGFβ1; parameters: key: ± = mRNA; + = protein; nt = not tested; conditions: Cultured Cells
# From the text: as §1
# [6] = Moderate deficit, interval 30 sec
# [7] = Moderate deficit, interval 60 sec
# [8] = Moderate deficit, interval 90 sec
# [9] = Severe deficit, interval <10 sec
structure (smiles),measurement,setting,value
"O=C(CCn1cnc2c(=O)[nH]cnc21)Nc1ccc(C(=O)O)cc1 [AIT-082, N-4-carboxyphenyl-3-(6-oxohydropurin-9-yl)propanamide]","Roto-Rod performance, Time",[1],162 ± 93 s
same,subjects performing significantly above chance/total number of subjects,"[2]; Mild deficit, interval 60 sec",6/6*
same,subjects performing significantly above chance/total number of subjects,"[2]; Mild deficit, interval 90 sec",4/6
same,subjects performing significantly above chance/total number of subjects,"[2]; Mild deficit, interval 120 sec",2/6
same,subjects performing significantly above chance/total number of subjects,"[2]; Mild deficit, interval 150 sec",1/6
same,subjects performing significantly above chance/total number of subjects,"[2]; Mild deficit, interval 180 sec",1/6
same,subjects performing significantly above chance/total number of subjects,"[2]; Mild deficit, interval 210 sec",0/6
same,subjects performing significantly above chance/total number of subjects,[2]; [6],4/6*
same,subjects performing significantly above chance/total number of subjects,[2]; [7],2/6
same,subjects performing significantly above chance/total number of subjects,[2]; [8],0/6
same,subjects performing significantly above chance/total number of subjects,[2]; [9],0/6
same,subjects performing significantly above chance/total number of subjects,"[3]; Mild deficit, interval 60 sec",4/4*
same,subjects performing significantly above chance/total number of subjects,"[3]; Mild deficit, interval 90 sec",2/4*
same,subjects performing significantly above chance/total number of subjects,"[3]; Moderate deficit, interval 10 sec",6/6*
same,subjects performing significantly above chance/total number of subjects,[3]; [6],4/6
same,subjects performing significantly above chance/total number of subjects,[3]; [7],1/6
same,subjects performing significantly above chance/total number of subjects,[3]; [8],0/6
same,subjects performing significantly above chance/total number of subjects,[3]; [9],0/6
same,duration of the memory trace after treatment,"[3]; mild deficit group, prolonged from 30",90 s
same,duration of the memory trace after treatment,"[3]; moderate deficit group, prolonged from 10",30 s
same,"bFGF, effect on mRNA/protein production",[4]; Aged Brain,±
same,"bFGF, effect on mRNA/protein production",[4]; Lesioned Brain,±
same,"TGFβ1, effect on mRNA/protein production",[5],+
